In patent publication US8084452B2, “Substituted enaminocarbonyl compounds used as insecticides” (Bayer Cropscience AG, priority 2006, dated 2011):

Tests used:
Type in all cases: in vivo
[1] = test system: green peach aphid (Myzus persicae); experiment: Myzus test (MYZUPE spray treatment); details: 500 g/ha, spray on Chinese cabbage leaf discs
Procedure: Myzus Test (MYZUPE Spray Treatment)
(§1) To produce a suitable preparation of active compound, 1 part by weight of active compound is mixed with the stated amounts of solvent and emulsifier, and the concentrate is diluted with emulsifier-containing water to the desired concentration.
Discs of Chinese cabbage leaves (Brassica pekinensis) which are infested by all stages of the green peach aphid (Myzus persicae) are sprayed with a preparation of active compound of the desired concentration.
After the desired period of time, the effect in % is determined 100% means that all aphids have been killed; 0% means that none of the aphids have been killed.

[2] = test system: brown planthopper (Nilaparvata lugens); experiment: Nilaparvata lugens test (NILALU hydroponic treatment); details: 100 g/ha (so in the source), active compound pipetted into water
Procedure: Nilanarvata lugens Test (NILALU Hydrononic Treatment)
as §1
The preparation of active compound is pipetted into water. […] The water is then infected with the brown planthopper (Nilaparvata lugens).
After the desired period of time, the effect in % is determined. 100% means that all planthoppers have been killed; 0% means that none of the planthoppers have been killed.

Meloidogyne incognita = experiment: Meloidogyne test (MELGIN spray treatment); details: 20 ppm, nematicidal activity by formation of galls on lettuce roots
Procedure: Meloidogyne Test (MELGIN Spray Treatment)
(§2) To produce a suitable preparation of active compound, 1 part by weight of active compound is mixed with the stated amounts of solvent and emulsifier, and the concentrate is diluted with water to the desired concentration.
Containers are filled with sand, active compound solution, Meloidogyne incognita egg/larvae suspension and lettuce seeds. The lettuce seeds germinate and the plants develop. On the roots, galls are formed.
After the desired period of time, the nematicidal activity is determined by the formation of galls in %. 100% means that no galls were found; 0% means that the number of galls on the treated plants corresponds to that of the untreated controls.

[3] = test system: green peach aphid (Myzus persicae); experiment: Myzus persicae test, hydroponic treatment (MYZUPE sys.); details: 20 ppm in water, pea plant
Procedure: Myzus persicae Test, Hydroponic Treatment (MYZUPE Sys.)
as §2
The preparation of active compound is mixed with water. The stated concentration refers to the amount of active compound per volume unit of water (mg/l=ppm). The treated water is filled into containers housing a pea plant (Pisum sativum) which is then infected with the green peach aphid (Myzus persicae).
(§3) After the desired period of time, the kill in % is determined. 100% means that all aphids have been killed; 0% means that none of the aphids have been killed.

[4] = test system: cotton aphid (Aphis gossypii); experiment: Aphis gossypii test (APHIGO), leaf dip; details: 100 ppm, cotton leaves dipped
Procedure: Aphis gossypii Test (APHIGO)
as §1
Cotton leaves (Gossypium hirsutum) which are heavily infested by the cotton aphid (Aphis gossypii) are treated by being dipped into the preparation of active compound of the desired concentration.
(§4) After the desired period of time, the kill in % is determined 100% means that all aphids have been killed; 0% means that none of the aphids have been killed.

[5] = test system: green peach aphid (Myzus persicae); experiment: Myzus persicae test (MYZUPE G), watering; details: 4 ppm, cabbage plants watered
Procedure: Myzus persicae Test; (MYZUPE G)
as §2
Cabbage plants (Brassica oleracea) which are heavily infested by the green peach aphid (Myzus persicae) are watered with a preparation of active compound of the desired concentration.
as §4

[6] = test system: cotton aphid (Aphis gossypii); experiment: Aphis gossypii test (APHIGO G), watering; details: 4 ppm, cotton plants watered
Procedure: Aphis gossypii Test; (APHIGO G)
as §2
Cotton plants (Gossypium hirsutum) which are heavily infested by the cotton aphid (Aphis gossypii) are watered with a preparation of active compound of the desired concentration.
as §3

Boophilus microplus = Boophilus microplus test (BOOPMI injection); details: 20 μg/animal injected into abdomen, 100% means no tick has laid fertile eggs
Procedure: Boophilus microplus Test (BOOPMI Injection)
To produce a suitable preparation of active compound, 1 part by weight of active compound is mixed with the stated amount of solvent, and the concentrate is diluted with solvent to the desired concentration.
The solution of active compound is injected into the abdomen (Boophilus microplus), and the animals are transferred into dishes and kept in a temperature-controlled room.
After the desired period of time, the effect in % is determined. 100% means that no tick has laid any fertile eggs.

[7] = test system: whitefly (Bemisia tabaci); experiment: Bemisia tabaci (BEMITA spray treatment); details: 500 g/ha, spray on cotton leaf discs infested by larvae
Procedure: Bemisia tabaci (BEMITA Spray Treatment)
as §1
Discs of cotton leaves (Gossypium hirsutum) which are infested by larvae of the whitefly (Bemisia tabaci) are sprayed with a preparation of active compound of the desired concentration.
After the desired period of time, the effect in % is determined 100% means that all whiteflies have been killed; 0% means that none of the whiteflies have been killed.

[8] = test system: adult fleas (Ctenocephalides felis); experiment: Ctenocephalides felis; oral (CTECFE); details: 100 ppm in citrated cattle blood
Procedure: Ctenocephalides felis; Oral (CTECFE)
To produce a suitable preparation of active compound, 1 part by weight of active compound is mixed with the stated amount of solvent. Part of the concentrate is diluted with citrated cattle blood, and the desired concentration is prepared.
20 unfed adult fleas (Ctenocephalides felis) are placed into a chamber whose top and bottom ends are closed with gauze. A metal cylinder whose bottom end is closed with parafilm is placed onto the chamber. The cylinder contains the blood/active compound preparation, which can be taken up by the fleas through the parafilm membrane. The blood is warmed to 37° C., but the flea chamber is at room temperature.
After the desired period of time, the kill in % is determined 100% means that all fleas have been killed; 0% means that none of the fleas have been killed.

Lucilia cuprina larvae = experiment: Lucilia cuprina test (LUCICU); details: 100 ppm, treated horse meat
Procedure: Lucilia cuprina Test (LUCICU)
To produce a suitable preparation of active compound, 1 part by weight of active compound is mixed with the stated amounts of solvent, and the concentrate is diluted with water to the desired concentration.
Containers containing horse meat treated with the preparation of active compound of the desired concentration are populated with Lucilia cuprina larvae.
After the desired period of time, the kill in % is determined 100% means that all larvae have been killed; 0% means that none of the larvae have been killed.

Row | Structure (SMILES) | Kill rate in % after 5 days [1] [%] | Kill rate in % after 7 days [2] [%] | Kill rate in % after 14 days (Meloidogyne incognita) [%] | Kill rate in % after 6 days [3] [%] | Kill rate in % after 6 days [4] [%] | Kill rate in % after 10 days [5] [%] | Kill rate in % after 10 days [6] [%] | Kill rate in % after 7 days (Boophilus microplus) [%] | Kill rate in % after 7 days [7] [%] | Kill rate in % after 2 days [8] [%] | Kill rate in % after 2 days (Lucilia cuprina larvae) [%]
1 | O=C1C=C(N(CCF)Cc2cnc(Cl)c(Cl)c2)CO1 [Example 2, 4-[[(5,6-Dichloropyridin-3-yl)methyl](2-fluoroethyl)amino]furan-2(5H)-one] | 100 | 80 | 100 | 100 | 95 | 98 | 100 | 100 | – | – | –
2 | O=C1C=C(N(Cc2cnc(Cl)c(F)c2)CC(F)F)CO1 [Example 1, 4-[[(6-Chloro-5-fluoropyridin-3-yl)methyl](2,2-difluoroethyl)amino]furan-2(5H)-one] | 100 | – | – | – | – | – | – | – | 100 | 80 | 100
